For 21 molecules, IC50 results are on record in patent US12258338B2, “Modulators of the integrated stress response pathway” (EVOTEC INTERNATIONAL GMBH, priority 2019, dated 2025).

Test [1] deals with T1, human ERG potassium channel (hERG) (Homo sapiens, UniProt Q12809).
T1 construct: expressed in transfected cells; host or cells: HEK293, stably transfected, tetracycline-inducible promoter
Kind of test: hERG channel tail current recording using in vitro Rapid ICE (automated patch-clamp, QPatch HTX). In kind it is cell-based. As to conditions: Table 26. How it is done: Protocol—Measure of the Effect on hERG Channel by Tail Current Recording Using In Vitro Rapid ICE
The potency of the example compounds in inhibiting human ERG potassium channel (hERG) tail current was assessed in a recombinant HEK293 cell line stably transfected with hERG cDNA under an inducible promoter, using Rapid ICE (rapid ion channel electrophysiology) assay. Rapid ICE is an automated patch-clamp assay utilizing the QPatch HTX system (Sophion Bioscience A/S). Briefly, inducible HEK hERG cells were cultivated in minimum essential medium supplemented with 10% FBS, 1% non-essential amino acids, 1% sodium pyruvate, 2 mM 1-glutamine, 15 μg/mL blasticidin, and 100 μg/mL hygromycin. hERG channel expression induction was obtained by adding 10 μg/mL tetracycline for 24, 48, or 72 h before recordings.
On the day of the experiment, cells were detached with TrypLE and prepared to be loaded on the instrument. Cells were resuspended in 7 mL of Serum-Free Media containing 25 mM Hepes and soybean trypsin inhibitor and immediately placed in the cell storage tank of the machine. The composition of the extracellular buffer was (mM): NaCl 137, KCl 4, CaCl2 1.8, MgCl2 1.0, d-glucose 10, N-2-hydroxyethylpiperazine-N′-2-ethanesulfonic acid (HEPES) 10, pH 7.4 with 1 M NaOH. The composition of the intracellular solution was (mM): KCl 130, MgCl2 1.0, ethylene glycol-bis(β-aminoethyl ether)-N,N,N′,N′-tetraacetic acid (EGTA) 5, MgATP 5, HEPES 10, pH 7.2 with 1 M KOH. The voltage protocol included the following steps: step from −80 to −50 mV for 200 ms, +20 mV for 4.8 s, step to −50 mV for 5 s, then step to the holding potential of −80 mV. Compounds were dissolved in DMSO and diluted in extracellular buffer to achieve final test concentrations (0.3, 3, and 30 μM) in 0.3% DMSO. The voltage protocol was run and recorded continuously during the experiment. The vehicle, corresponding to 0.3% DMSO in extracellular buffer was then applied for 3 min, followed by the test substance in triplicate. The standard combined exposure time was 5 min. The average of tail current amplitude values recorded from four sequential voltage pulses was used to calculate for each cell the effect of the test substance by calculating the residual current (% control) compared with vehicle pretreatment. Data were reported as % inhibition for each concentration tested, and IC50 values were estimated using QPatch software. At least two cells were tested, and even more if results diverged.
In general terms: hERG is a cardiac potassium channel; its block is linked to QT prolongation.

In a further test the test system is ATF4. The test is described as follows: HEK-ATF4 High Content Imaging assay (prevention of Tunicamycin induced ISR; ATF4 signal ratio between nucleus and cytoplasm). The test is classed as cell-based. As to conditions: Homo sapiens; Wild-type HEK293 cells, Tunicamycin induced ISR, 6 h; read-out: IIEK-ATF4 Activity. An outline of the steps:
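Wild-type HEK293 cells in 0.3% FBS medium were co-treated with compounds and Tunicamycin (3.3 μM in prediluted medium, 11-fold over final) for 6 h at 37 °C. Fixed cells were immunostained for ATF4 with Hoechst nuclei; imaging gave nuclear/cytoplasmic ATF4 ratio, with nuclei counts as toxicity control.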

Bounds are passed on as bounds.

T1 sequence (Q12809 whole entry): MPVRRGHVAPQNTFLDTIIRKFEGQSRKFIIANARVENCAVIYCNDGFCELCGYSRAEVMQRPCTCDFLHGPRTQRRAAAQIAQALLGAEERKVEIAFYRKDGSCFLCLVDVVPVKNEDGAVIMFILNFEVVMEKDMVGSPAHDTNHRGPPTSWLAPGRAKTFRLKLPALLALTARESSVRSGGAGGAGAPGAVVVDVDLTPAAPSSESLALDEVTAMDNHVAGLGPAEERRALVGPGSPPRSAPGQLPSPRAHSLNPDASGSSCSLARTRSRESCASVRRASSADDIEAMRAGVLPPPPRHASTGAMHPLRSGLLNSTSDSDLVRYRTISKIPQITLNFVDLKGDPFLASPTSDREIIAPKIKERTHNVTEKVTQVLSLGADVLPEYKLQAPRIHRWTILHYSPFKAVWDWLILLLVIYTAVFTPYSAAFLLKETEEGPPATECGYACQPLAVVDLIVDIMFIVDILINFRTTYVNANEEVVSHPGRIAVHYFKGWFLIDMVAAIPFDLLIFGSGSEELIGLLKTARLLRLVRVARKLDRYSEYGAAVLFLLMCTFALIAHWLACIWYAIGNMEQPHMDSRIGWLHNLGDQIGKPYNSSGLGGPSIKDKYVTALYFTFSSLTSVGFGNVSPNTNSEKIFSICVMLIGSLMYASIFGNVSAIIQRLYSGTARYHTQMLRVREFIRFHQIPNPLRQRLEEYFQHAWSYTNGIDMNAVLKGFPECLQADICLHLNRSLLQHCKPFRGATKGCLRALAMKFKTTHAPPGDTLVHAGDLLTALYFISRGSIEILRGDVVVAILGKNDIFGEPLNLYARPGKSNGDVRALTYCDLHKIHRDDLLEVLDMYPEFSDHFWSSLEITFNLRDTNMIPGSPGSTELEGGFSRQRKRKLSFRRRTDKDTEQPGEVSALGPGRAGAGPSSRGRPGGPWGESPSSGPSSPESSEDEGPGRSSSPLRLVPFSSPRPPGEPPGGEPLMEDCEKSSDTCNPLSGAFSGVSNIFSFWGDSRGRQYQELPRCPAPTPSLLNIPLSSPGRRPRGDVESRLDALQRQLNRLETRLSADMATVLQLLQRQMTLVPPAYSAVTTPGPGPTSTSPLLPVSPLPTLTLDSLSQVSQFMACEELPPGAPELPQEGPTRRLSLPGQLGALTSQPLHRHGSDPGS

Take `O=C(COc1ccc(Cl)c(F)c1)N[C@H]1CC[C@H](c2nnc(OCCC3CC3)o2)NC1` [Example 69, 2-(4-chloro-3-fluorophenoxy)-N-[(3S,6R)-6-[5-(2-cyclopropylethoxy)-1,3,4-oxadiazol-2-yl]piperidin-3-yl]acetamide]: the IC50 in test [1] was 0.001 to 1 µM; with ATF4 it was 0.001 to 0.5 µM.

`CC(C)CCOc1nnc([C@H]2CC[C@H](NC(=O)COc3ccc(Cl)c(F)c3)CN2)o1` [Example 70, 2-(4-chloro-3-fluorophenoxy)-N-[(3S,6R)-6-[5-(3-methylbutoxy)-1,3,4-oxadiazol-2-yl]piperidin-3-yl]acetamide]: the figures for the IC50 (in test [1]; in the test on ATF4) were 1 to 5 µM and 0.001 to 0.5 µM, respectively.

As for `O=C(COc1ccc(Cl)c(F)c1)N[C@H]1CC[C@H](c2nnc(OCC3CCC3(F)F)o2)NC1` (stereo partly drawn) [Example 71, 2-(4-chloro-3-fluorophenoxy)-N-[(3S,6R)-6-{5-[(2,2-difluorocyclobutyl)methoxy]-1,3,4-oxadiazol-2-yl}piperidin-3-yl]acetamide], the IC50 in test [1] lay within 1 to 5 µM; in the test on ATF4, 0.5 to 2 µM.

Consider `O=C(COc1ccc(Cl)c(F)c1)N[C@H]1CC[C@H](c2nnc(OC3CC(F)(F)C3)o2)NC1` [Example 72, 2-(4-chloro-3-fluorophenoxy)-N-[(3S,6R)-6-[5-(3,3-difluorocyclobutoxy)-1,3,4-oxadiazol-2-yl]piperidin-3-yl]acetamide], for which the IC50 in test [1] was 1 to 5 µM; with ATF4, 2 to 15 µM.

Turning to `CC(C)(C)OC(=O)N1C[C@@H](NC(=O)COc2ccc(Cl)c(F)c2)CC[C@@H]1c1nnc(OCCOC(F)(F)F)o1` [Example 76, tert-butyl (2R,5S)-5-[2-(4-chloro-3-fluorophenoxy)acetamido]-2-{5-[2-(trifluoromethoxy)ethoxy]-1,3,4-oxadiazol-2-yl}piperidine-1-carboxylate], the IC50 is more than 5 µM in test [1] and 0.5 to 2 µM in the test with ATF4.

Consider `CCCCCOc1nnc([C@H]2CC[C@H](NC(=O)COc3ccc(Cl)c(F)c3)CN2)o1` [Example 78, 2-(4-chloro-3-fluorophenoxy)-N-[(3S,6R)-6-[5-(pentyloxy)-1,3,4-oxadiazol-2-yl]piperidin-3-yl]acetamide], for which the IC50 lay within 1 to 5 µM in test [1] and 0.001 to 0.5 µM with ATF4.

Turning to `COCCCOc1nnc([C@H]2CC[C@H](NC(=O)COc3ccc(Cl)c(F)c3)CN2)o1` [Example 79, 2-(4-chloro-3-fluorophenoxy)-N-[(3S,6R)-6-[5-(3-methoxypropoxy)-1,3,4-oxadiazol-2-yl]piperidin-3-yl]acetamide], the figures for the IC50 (in test [1]; with ATF4) were more than 5 µM and 2 to 15 µM, respectively.

With `O=C(COc1ccc(Cl)c(F)c1)N[C@H]1CC[C@H](c2nnc(OCCOC3CC3)o2)NC1` [Example 80, 2-(4-chloro-3-fluorophenoxy)-N-[(3S,6R)-6-[5-(2-cyclopropoxythoxy)-1,3,4-oxadiazol-2-yl]piperidin-3-yl]acetamide], the IC50 in test [1] is more than 5 µM; with ATF4 it was 0.001 to 0.5 µM.

Take `CCOCCOc1nnc([C@H]2CC[C@H](NC(=O)COc3ccc(Cl)c(F)c3)CN2)o1` [Example 81, 2-(4-chloro-3-fluorophenoxy)-N-[(3S,6R)-6-[5-(2-ethoxyethoxy)-1,3,4-oxadiazol-2-yl]piperidin-3-yl]acctamide]: the IC50 in test [1] was more than 5 µM; with ATF4, 0.5 to 2 µM.

Consider `O=C(COc1ccc(Cl)c(F)c1)N[C@H]1CC[C@H](c2nnc(OCCOC3CCC3)o2)NC1` [Example 82, 2-(4-chloro-3-fluorophenoxy)-N-[(3S,6R)-6-[5-(2-cyclobutoxyethoxy)-1,3,4-oxadiazol-2-yl]piperidin-3-yl]acetamide], for which the IC50 in test [1] was more than 5 µM; with ATF4, 0.001 to 0.5 µM.

For the molecule `O=C(COc1ccc(Cl)c(F)c1)N[C@@H]1CC[C@@H](c2nnc(OCCOC(F)(F)F)o2)NC1` [Example 83, 2-(4-chloro-3-fluorophenoxy)-N-[(3R,6S)-6-{5-[2-(trifluoromethoxy)ethoxy]-1,3,4-oxadiazol-2-yl}piperidin-3-yl]acetamide], the IC50 was more than 5 µM in test [1] and 0.001 to 0.5 µM in the test with ATF4.

On to `O=C(COc1ccc(Cl)c(Cl)c1)N[C@H]1CC[C@H](c2nnc(OCCOC3CC3)o2)NC1` [Example 86, N-[(3S,6R)-6-[5-(2-cyclopropoxyethoxy)-1,3,4-oxadiazol-2-yl]piperidin-3-yl]-2-(3,4-dichlorophenoxy)acetamide], for which the figures for the IC50 (in test [1]; with ATF4) were 1 to 5 µM and 0.001 to 0.5 µM, respectively.

On to `O=C(COc1ccc(Cl)c(F)c1)N[C@H]1CC[C@H](c2nnc(OCCOC3CC3(F)F)o2)NC1` (stereo partly drawn) [Example 87, 2-(4-chloro-3-fluorophenoxy)-N-[(3S,6R)-6-{5-[2-(2,2-difluorocyclopropoxy)ethoxy]-1,3,4-oxadiazol-2-yl}piperidin-3-yl]acetamide], for which the IC50 in test [1] was in the range of 1 to 5 µM; with ATF4, 0.001 to 0.5 µM.

With `O=C(COc1ccc(Cl)c(F)c1)N[C@H]1CC[C@H](c2nnc(OCC3CC3C(F)(F)F)o2)NC1` (stereo partly drawn) [Example 88, 2-(4-chloro-3-fluorophenoxy)-N-[(3S,6R)-6-(5-{[2-(trifluoromethyl)cyclopropyl]methoxy}-1,3,4-oxadiazol-2-yl)piperidin-3-yl]acetamide], the IC50 in test [1] is 1 to 5 µM; in the test on ATF4, 0.5 to 2 µM.

Take `O=C(COc1ccc(Cl)c(F)c1)N[C@H]1CC[C@H](c2nnc(N3CC(OC(F)(F)F)C3)o2)NC1` [Example 91, 2-(4-chloro-3-fluorophenoxy)-N-[(3S,6R)-6-{5-[3-(trifluoromethoxy)azetidin-1-yl]-1,3,4-oxadiazol-2-yl}piperidin-3-yl]acetamide]: the IC50 lay in the range of 1 to 5 µM in test [1] and 0.001 to 0.5 µM in the test with ATF4.

For `O=C(COc1ccc(Cl)c(F)c1)N[C@H]1CC[C@H](c2nnc(N3CC(CC(F)(F)F)C3)o2)NC1` [Example 92, 2-(4-chloro-3-fluorophenoxy)-N-[(3S,6R)-6-{5-[3-(2,2,2-trifluoroethyl)azetidin-1-yl]-1,3,4-oxadiazol-2-yl}piperidin-3-yl]acetamide], the IC50 fell in the range of 1 to 5 µM in test [1] and 0.5 to 2 µM with ATF4.

As for `CC1(OC(F)(F)F)CN(c2nnc([C@H]3CC[C@H](NC(=O)COc4ccc(Cl)c(F)c4)CN3)o2)C1` [Example 93, 2-(4-chloro-3-fluorophenoxy)-N-[(3S,6R)-6-{5-[3-methyl-3-(trifluoromethoxy)azetidin-1-yl]-1,3,4-oxadiazol-2-yl}piperidin-3-yl]acetamide], the IC50 was more than 5 µM in test [1] and 0.5 to 2 µM with ATF4.

`CN(CCOC(F)(F)F)c1nnc([C@H]2CC[C@H](NC(=O)COc3ccc(Cl)c(F)c3)CN2)o1` [Example 94, 2-(4-chloro-3-fluorophenoxy)-N-[(3S,6R)-6-(5-{methyl[2-(trifluoromethoxy)ethyl]amino}-1,3,4-oxadiazol-2-yl)piperidin-3-yl]acetamide]: the IC50 in test [1] was more than 5 µM; with ATF4 it was 2 to 15 µM.

For the molecule `O=C(COc1cnc(Cl)c(F)c1)N[C@H]1CC[C@H](c2nnc(-c3ccc(Cl)c(Cl)c3)o2)NC1` [Example 100, 2-[(6-chloro-5-fluoropyridin-3-yl)oxy]-N-[(3S,6R)-6-[5-(3,4-dichlorophenyl)-1,3,4-oxadiazol-2-yl]piperidin-3-yl]acetamide], the IC50 in test [1] was in the range of 1 to 5 µM; in the test with ATF4, 0.001 to 0.5 µM.

With `CN1C[C@@H](NC(=O)COc2ccc(Cl)c(F)c2)CC[C@@H]1c1nnc(OCCOC(F)(F)F)o1` [Example 101, 2-(4-chloro-3-fluorophenoxy)-N-[(3S,6R)-1-methyl-6-{5-[2-(trifluoromethoxy)ethoxy]-1,3,4-oxadiazol-2-yl}piperidin-3-yl]acetamide], the IC50 in test [1] was more than 5 µM; with ATF4 it was 0.001 to 0.5 µM.

Turning to `O=C(COc1ccc(C(F)F)c(Cl)c1)N[C@H]1CC[C@H](c2nnc(OCCOC(F)(F)F)o2)NC1` [Example 113, 2-[3-chloro-4-(difluoromethyl)phenoxy]-N-[(3S,6R)-6-{5-[2-(trifluoromethoxy)ethoxy]-1,3,4-oxadiazol-2-yl}piperidin-3-yl]acetamide], the IC50 in test [1] lay in the range of 1 to 5 µM; with ATF4, 0.001 to 0.5 µM.
